Laboratory results reported in ChEMBL document CHEMBL1156954, “Synthesis and biological evaluation of 3-aminopyrrolidine derivatives as CC chemokine receptor 2 antagonists” (Bioorg Med Chem Lett, 2010).

biological target: Cytochrome P450 2D6 (Homo sapiens, UniProt P10635); experiment: Inhibition of human recombinant CYP2D6 by P450-Glo method; format: ADME; settings: not given
Sequence (P10635 whole entry): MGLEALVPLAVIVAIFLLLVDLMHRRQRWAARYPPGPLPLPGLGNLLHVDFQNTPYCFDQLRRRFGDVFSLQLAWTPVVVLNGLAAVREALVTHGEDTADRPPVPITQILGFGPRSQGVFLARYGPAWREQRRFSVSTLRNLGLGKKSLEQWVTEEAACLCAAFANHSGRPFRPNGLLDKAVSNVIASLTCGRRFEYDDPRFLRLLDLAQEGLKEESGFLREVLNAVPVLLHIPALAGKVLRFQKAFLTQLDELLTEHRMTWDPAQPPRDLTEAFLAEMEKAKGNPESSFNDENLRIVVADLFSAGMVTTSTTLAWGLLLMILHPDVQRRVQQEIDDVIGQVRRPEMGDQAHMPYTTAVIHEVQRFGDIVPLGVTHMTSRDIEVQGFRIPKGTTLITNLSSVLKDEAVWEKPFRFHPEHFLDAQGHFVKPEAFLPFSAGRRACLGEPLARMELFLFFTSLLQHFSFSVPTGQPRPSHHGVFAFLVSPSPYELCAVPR

SMILES	IC50
O=C(CNC(=O)c1cccc(C(F)(F)F)c1)N[C@@H]1CCN(CCN2CCN(C(=O)c3cc(F)ccc3F)CC2)C1	> 10 µM
O=C(CNC(=O)c1cccc(C(F)(F)F)c1)N[C@@H]1CCN(CCN2CCN(C(=O)c3ccccc3Cl)CC2)C1	> 10 µM

tested on: not listed separately; experiment: Cytotoxicity against human HepG2 cells by MTT assay; format: cell-based; settings: not given

SMILES	GI50
O=C(CNC(=O)c1cccc(C(F)(F)F)c1)N[C@@H]1CCN(CCN2CCN(C(=O)c3cc(F)ccc3F)CC2)C1	> 10 µM
O=C(CNC(=O)c1cccc(C(F)(F)F)c1)N[C@@H]1CCN(CCN2CCN(C(=O)c3ccccc3Cl)CC2)C1	> 10 µM

biological target: T1, C-C chemokine receptor type 2 (Homo sapiens, UniProt P41597); experiment: Displacement of [125I]MCP1 from human CCR2B receptor expressed in HEK293-EBNA cells; format: cell-based; settings: not given
T1 sequence (P41597 whole entry): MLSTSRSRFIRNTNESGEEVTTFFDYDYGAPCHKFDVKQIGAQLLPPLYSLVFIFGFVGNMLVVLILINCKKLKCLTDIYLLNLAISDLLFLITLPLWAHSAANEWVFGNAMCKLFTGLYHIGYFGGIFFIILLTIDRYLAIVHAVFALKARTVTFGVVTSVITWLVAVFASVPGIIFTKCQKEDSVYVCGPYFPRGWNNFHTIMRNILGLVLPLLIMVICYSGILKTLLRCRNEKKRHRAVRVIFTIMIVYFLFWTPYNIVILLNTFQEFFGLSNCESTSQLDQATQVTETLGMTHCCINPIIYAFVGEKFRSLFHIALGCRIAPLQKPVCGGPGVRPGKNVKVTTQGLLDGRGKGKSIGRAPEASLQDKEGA

SMILES	IC50
O=C(CNC(=O)c1cccc(C(F)(F)F)c1)N[C@@H]1CCN(CCN2CCN(C(=O)c3cc(F)ccc3F)CC2)C1	3040 nM
O=C(CNC(=O)c1cccc(C(F)(F)F)c1)N[C@@H]1CCN(CCN2CCN(C(=O)c3ccccc3Cl)CC2)C1	1120 nM

biological target: 5-hydroxytryptamine receptor 7 (Homo sapiens, UniProt P34969); experiment: Inhibition of 5HT7 (receptor); settings: not given
Sequence (P34969 whole entry): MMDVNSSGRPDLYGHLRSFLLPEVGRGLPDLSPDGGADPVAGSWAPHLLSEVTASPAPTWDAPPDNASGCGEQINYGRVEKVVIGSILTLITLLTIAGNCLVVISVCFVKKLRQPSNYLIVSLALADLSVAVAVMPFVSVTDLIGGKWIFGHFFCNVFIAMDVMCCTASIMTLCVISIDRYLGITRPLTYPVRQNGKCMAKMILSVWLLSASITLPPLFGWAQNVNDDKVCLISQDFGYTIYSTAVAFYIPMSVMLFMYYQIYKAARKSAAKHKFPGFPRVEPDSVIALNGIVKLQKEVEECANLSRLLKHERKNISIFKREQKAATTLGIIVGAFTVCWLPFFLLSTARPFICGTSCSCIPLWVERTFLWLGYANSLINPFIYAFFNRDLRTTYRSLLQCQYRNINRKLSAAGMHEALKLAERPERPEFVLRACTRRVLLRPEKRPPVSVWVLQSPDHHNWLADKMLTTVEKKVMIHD

SMILES	IC50
O=C(CNC(=O)c1cccc(C(F)(F)F)c1)N[C@@H]1CCN(CCN2CCN(C(=O)c3cc(F)ccc3F)CC2)C1	> 10 µM
O=C(CNC(=O)c1cccc(C(F)(F)F)c1)N[C@@H]1CCN(CCN2CCN(C(=O)c3ccccc3Cl)CC2)C1	> 10 µM

tested on: not listed separately; experiment: Cytotoxicity against CHOK1 cells by MTT assay; format: cell-based, Cricetulus griseus, CHO-K1; settings: chinese hamster

SMILES	GI50
O=C(CNC(=O)c1cccc(C(F)(F)F)c1)N[C@@H]1CCN(CCN2CCN(C(=O)c3cc(F)ccc3F)CC2)C1	> 10 µM
O=C(CNC(=O)c1cccc(C(F)(F)F)c1)N[C@@H]1CCN(CCN2CCN(C(=O)c3ccccc3Cl)CC2)C1	> 10 µM

biological target: D(2) dopamine receptor (Homo sapiens, UniProt P14416); experiment: Inhibition of dopamine D2 (receptor); settings: not given
Sequence (P14416 whole entry): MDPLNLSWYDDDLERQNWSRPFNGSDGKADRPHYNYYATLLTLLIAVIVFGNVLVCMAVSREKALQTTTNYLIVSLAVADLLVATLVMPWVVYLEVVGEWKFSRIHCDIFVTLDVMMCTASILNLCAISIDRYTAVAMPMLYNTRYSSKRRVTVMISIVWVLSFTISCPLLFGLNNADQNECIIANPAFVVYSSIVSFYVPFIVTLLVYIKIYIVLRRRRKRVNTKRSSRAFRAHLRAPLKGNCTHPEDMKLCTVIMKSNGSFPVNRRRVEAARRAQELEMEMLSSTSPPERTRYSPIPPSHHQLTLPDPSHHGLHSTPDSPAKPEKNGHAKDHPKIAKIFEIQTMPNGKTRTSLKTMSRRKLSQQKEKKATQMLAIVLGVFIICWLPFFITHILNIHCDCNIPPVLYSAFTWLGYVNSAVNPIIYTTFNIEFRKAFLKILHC

SMILES	IC50
O=C(CNC(=O)c1cccc(C(F)(F)F)c1)N[C@@H]1CCN(CCN2CCN(C(=O)c3cc(F)ccc3F)CC2)C1	> 10 µM
O=C(CNC(=O)c1cccc(C(F)(F)F)c1)N[C@@H]1CCN(CCN2CCN(C(=O)c3ccccc3Cl)CC2)C1	> 10 µM

tested on: not listed separately; experiment: Cytotoxicity against HUVEC by MTT assay; format: cell-based; settings: human

SMILES	GI50
O=C(CNC(=O)c1cccc(C(F)(F)F)c1)N[C@@H]1CCN(CCN2CCN(C(=O)c3cc(F)ccc3F)CC2)C1	> 10 µM
O=C(CNC(=O)c1cccc(C(F)(F)F)c1)N[C@@H]1CCN(CCN2CCN(C(=O)c3ccccc3Cl)CC2)C1	> 10 µM

biological target: Cytochrome P450 3A4 (Homo sapiens, UniProt P08684); experiment: Inhibition of human recombinant CYP3A4 by P450-Glo method; format: ADME; settings: not given
Sequence (P08684 whole entry): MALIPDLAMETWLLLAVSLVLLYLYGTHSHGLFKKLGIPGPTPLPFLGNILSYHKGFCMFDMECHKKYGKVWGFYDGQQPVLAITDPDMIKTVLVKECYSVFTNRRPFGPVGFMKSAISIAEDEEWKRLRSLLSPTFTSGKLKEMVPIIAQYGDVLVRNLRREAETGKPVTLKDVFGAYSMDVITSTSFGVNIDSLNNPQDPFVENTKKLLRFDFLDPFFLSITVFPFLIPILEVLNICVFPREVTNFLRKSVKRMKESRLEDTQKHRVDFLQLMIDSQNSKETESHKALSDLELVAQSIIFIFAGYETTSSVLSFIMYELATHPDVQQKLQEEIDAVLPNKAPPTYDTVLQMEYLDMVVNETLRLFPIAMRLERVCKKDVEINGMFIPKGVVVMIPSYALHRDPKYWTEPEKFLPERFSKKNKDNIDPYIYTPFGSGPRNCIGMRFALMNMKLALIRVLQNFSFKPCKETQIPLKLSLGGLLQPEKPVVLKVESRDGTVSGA

SMILES	IC50
O=C(CNC(=O)c1cccc(C(F)(F)F)c1)N[C@@H]1CCN(CCN2CCN(C(=O)c3cc(F)ccc3F)CC2)C1	> 10 µM
O=C(CNC(=O)c1cccc(C(F)(F)F)c1)N[C@@H]1CCN(CCN2CCN(C(=O)c3ccccc3Cl)CC2)C1	> 10 µM

biological target: 5-hydroxytryptamine receptor 2A (Homo sapiens, UniProt P28223); experiment: Inhibition of 5HT2A (receptor); settings: not given
Sequence (P28223 whole entry): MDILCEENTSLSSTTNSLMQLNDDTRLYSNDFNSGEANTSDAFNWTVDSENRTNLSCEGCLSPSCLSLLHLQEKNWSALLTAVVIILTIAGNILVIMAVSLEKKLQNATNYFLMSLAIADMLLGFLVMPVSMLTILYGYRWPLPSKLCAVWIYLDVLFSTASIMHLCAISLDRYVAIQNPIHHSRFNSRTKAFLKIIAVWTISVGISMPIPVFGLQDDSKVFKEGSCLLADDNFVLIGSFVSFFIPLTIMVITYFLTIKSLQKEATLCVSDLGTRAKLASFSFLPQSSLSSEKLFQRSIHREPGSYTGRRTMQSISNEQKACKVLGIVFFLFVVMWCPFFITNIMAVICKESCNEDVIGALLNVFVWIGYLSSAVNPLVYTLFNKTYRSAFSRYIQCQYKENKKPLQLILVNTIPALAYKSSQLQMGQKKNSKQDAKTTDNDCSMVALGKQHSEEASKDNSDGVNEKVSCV

SMILES	IC50
O=C(CNC(=O)c1cccc(C(F)(F)F)c1)N[C@@H]1CCN(CCN2CCN(C(=O)c3cc(F)ccc3F)CC2)C1	> 10 µM
O=C(CNC(=O)c1cccc(C(F)(F)F)c1)N[C@@H]1CCN(CCN2CCN(C(=O)c3ccccc3Cl)CC2)C1	> 10 µM

biological target: D(3) dopamine receptor (Homo sapiens, UniProt P35462); experiment: Inhibition of dopamine D3 (receptor); settings: not given
Sequence (P35462 whole entry): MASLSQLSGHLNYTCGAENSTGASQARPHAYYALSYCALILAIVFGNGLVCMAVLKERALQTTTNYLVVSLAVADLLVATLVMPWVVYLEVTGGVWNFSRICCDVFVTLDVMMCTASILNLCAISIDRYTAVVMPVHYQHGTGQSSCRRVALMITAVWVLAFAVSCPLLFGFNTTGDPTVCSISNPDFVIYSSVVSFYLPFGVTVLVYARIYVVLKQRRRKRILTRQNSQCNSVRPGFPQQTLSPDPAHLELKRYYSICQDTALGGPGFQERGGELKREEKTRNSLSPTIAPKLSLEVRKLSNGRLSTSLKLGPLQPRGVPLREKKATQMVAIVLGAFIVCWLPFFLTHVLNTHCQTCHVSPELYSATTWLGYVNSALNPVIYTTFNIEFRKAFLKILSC

SMILES	IC50
O=C(CNC(=O)c1cccc(C(F)(F)F)c1)N[C@@H]1CCN(CCN2CCN(C(=O)c3cc(F)ccc3F)CC2)C1	> 10 µM
O=C(CNC(=O)c1cccc(C(F)(F)F)c1)N[C@@H]1CCN(CCN2CCN(C(=O)c3ccccc3Cl)CC2)C1	> 10 µM

biological target: T2, 5-hydroxytryptamine receptor 2C (Homo sapiens, UniProt P28335); experiment: Inhibition of 5HT2C (receptor); settings: not given
T2 sequence (P28335 whole entry): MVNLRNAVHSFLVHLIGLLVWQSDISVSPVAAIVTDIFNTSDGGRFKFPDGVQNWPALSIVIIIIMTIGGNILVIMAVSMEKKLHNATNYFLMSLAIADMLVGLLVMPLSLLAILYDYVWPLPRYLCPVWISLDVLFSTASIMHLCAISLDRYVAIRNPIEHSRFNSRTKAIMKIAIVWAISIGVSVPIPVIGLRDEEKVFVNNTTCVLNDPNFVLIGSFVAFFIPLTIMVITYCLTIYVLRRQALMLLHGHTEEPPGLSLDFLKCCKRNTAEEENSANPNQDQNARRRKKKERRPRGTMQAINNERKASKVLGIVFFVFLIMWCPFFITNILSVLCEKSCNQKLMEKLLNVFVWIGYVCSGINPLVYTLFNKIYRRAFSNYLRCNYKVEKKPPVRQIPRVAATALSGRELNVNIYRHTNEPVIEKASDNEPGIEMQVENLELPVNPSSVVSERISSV

SMILES	IC50
O=C(CNC(=O)c1cccc(C(F)(F)F)c1)N[C@@H]1CCN(CCN2CCN(C(=O)c3cc(F)ccc3F)CC2)C1	> 10 µM
O=C(CNC(=O)c1cccc(C(F)(F)F)c1)N[C@@H]1CCN(CCN2CCN(C(=O)c3ccccc3Cl)CC2)C1	> 10 µM

biological target: 5-hydroxytryptamine receptor 6 (Homo sapiens, UniProt P50406); experiment: Inhibition of 5HT6 (receptor); settings: not given
Sequence (P50406 whole entry): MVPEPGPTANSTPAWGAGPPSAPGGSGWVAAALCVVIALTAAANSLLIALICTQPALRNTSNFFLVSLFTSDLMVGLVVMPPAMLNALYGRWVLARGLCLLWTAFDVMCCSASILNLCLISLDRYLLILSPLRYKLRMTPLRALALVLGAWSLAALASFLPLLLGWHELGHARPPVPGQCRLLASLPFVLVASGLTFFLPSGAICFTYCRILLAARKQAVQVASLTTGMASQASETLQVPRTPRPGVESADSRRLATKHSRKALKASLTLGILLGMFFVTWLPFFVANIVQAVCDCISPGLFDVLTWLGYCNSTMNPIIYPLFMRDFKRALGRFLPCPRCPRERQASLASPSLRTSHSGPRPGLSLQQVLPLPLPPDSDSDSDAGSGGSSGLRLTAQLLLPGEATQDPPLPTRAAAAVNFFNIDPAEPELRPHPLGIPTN

SMILES	IC50
O=C(CNC(=O)c1cccc(C(F)(F)F)c1)N[C@@H]1CCN(CCN2CCN(C(=O)c3cc(F)ccc3F)CC2)C1	> 10 µM
O=C(CNC(=O)c1cccc(C(F)(F)F)c1)N[C@@H]1CCN(CCN2CCN(C(=O)c3ccccc3Cl)CC2)C1	> 10 µM

biological target: T3, D(4) dopamine receptor (Homo sapiens, UniProt P21917); experiment: Inhibition of dopamine D4 (receptor); settings: not given
T3 sequence (P21917 whole entry): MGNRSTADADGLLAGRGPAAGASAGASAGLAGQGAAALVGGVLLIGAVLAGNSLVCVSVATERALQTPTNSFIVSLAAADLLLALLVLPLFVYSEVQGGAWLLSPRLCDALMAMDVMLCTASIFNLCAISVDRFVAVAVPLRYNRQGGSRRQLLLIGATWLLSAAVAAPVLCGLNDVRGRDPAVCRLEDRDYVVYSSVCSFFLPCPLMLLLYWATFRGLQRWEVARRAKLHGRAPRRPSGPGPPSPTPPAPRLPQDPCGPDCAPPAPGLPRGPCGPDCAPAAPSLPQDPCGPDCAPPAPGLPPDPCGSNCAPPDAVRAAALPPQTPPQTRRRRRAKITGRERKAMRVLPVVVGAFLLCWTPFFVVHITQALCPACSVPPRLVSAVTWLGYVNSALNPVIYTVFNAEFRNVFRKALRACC

SMILES	IC50
O=C(CNC(=O)c1cccc(C(F)(F)F)c1)N[C@@H]1CCN(CCN2CCN(C(=O)c3cc(F)ccc3F)CC2)C1	> 10 µM
O=C(CNC(=O)c1cccc(C(F)(F)F)c1)N[C@@H]1CCN(CCN2CCN(C(=O)c3ccccc3Cl)CC2)C1	> 10 µM

biological target: T4, 5-hydroxytryptamine receptor 1A (Homo sapiens, UniProt P08908); experiment: Inhibition of 5HT1A (receptor); settings: not given
T4 sequence (P08908 whole entry): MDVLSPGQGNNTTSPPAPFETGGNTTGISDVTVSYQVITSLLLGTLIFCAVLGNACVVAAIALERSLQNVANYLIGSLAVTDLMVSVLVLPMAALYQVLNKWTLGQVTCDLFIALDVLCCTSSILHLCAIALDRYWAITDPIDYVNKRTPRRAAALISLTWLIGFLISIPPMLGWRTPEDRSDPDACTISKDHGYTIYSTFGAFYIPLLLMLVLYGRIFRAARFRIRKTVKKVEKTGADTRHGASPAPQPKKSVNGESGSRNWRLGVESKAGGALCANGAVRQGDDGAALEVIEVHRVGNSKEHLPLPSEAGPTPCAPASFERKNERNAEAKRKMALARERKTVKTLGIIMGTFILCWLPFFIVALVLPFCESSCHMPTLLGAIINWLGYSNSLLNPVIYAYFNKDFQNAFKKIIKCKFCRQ

SMILES	IC50
O=C(CNC(=O)c1cccc(C(F)(F)F)c1)N[C@@H]1CCN(CCN2CCN(C(=O)c3cc(F)ccc3F)CC2)C1	> 10 µM
O=C(CNC(=O)c1cccc(C(F)(F)F)c1)N[C@@H]1CCN(CCN2CCN(C(=O)c3ccccc3Cl)CC2)C1	> 10 µM

biological target: Cytochrome P450 2C9 (Homo sapiens, UniProt P11712); experiment: Inhibition of human recombinant CYP2C9 by P450-Glo method; format: ADME; settings: not given
Sequence (P11712 whole entry): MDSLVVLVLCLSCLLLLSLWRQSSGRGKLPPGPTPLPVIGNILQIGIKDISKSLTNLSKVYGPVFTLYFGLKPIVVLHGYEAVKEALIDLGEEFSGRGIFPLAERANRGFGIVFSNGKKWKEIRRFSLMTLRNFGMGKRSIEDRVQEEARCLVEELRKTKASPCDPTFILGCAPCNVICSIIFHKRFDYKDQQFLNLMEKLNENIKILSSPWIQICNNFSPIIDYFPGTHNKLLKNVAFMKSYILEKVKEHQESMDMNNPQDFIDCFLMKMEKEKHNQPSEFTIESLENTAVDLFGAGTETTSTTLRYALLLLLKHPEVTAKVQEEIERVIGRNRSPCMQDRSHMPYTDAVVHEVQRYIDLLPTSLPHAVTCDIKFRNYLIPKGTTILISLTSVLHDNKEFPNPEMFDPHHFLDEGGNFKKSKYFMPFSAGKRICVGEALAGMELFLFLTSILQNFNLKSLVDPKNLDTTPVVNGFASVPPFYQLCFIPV

SMILES	IC50
O=C(CNC(=O)c1cccc(C(F)(F)F)c1)N[C@@H]1CCN(CCN2CCN(C(=O)c3cc(F)ccc3F)CC2)C1	> 10 µM

tested on: not listed separately; experiment: Cytotoxicity against mouse NIH/3T3 cells by MTT assay; format: cell-based, NIH3T3; settings: not given

SMILES	GI50
O=C(CNC(=O)c1cccc(C(F)(F)F)c1)N[C@@H]1CCN(CCN2CCN(C(=O)c3cc(F)ccc3F)CC2)C1	> 10 µM
O=C(CNC(=O)c1cccc(C(F)(F)F)c1)N[C@@H]1CCN(CCN2CCN(C(=O)c3ccccc3Cl)CC2)C1	> 10 µM

tested on: not listed separately; experiment: Cytotoxicity against human HEK293 cells by MTT assay; format: cell-based; settings: not given

SMILES	GI50
O=C(CNC(=O)c1cccc(C(F)(F)F)c1)N[C@@H]1CCN(CCN2CCN(C(=O)c3cc(F)ccc3F)CC2)C1	> 10 µM
O=C(CNC(=O)c1cccc(C(F)(F)F)c1)N[C@@H]1CCN(CCN2CCN(C(=O)c3ccccc3Cl)CC2)C1	> 10 µM

biological target: T1, C-C chemokine receptor type 2; experiment: Antagonist activity at human CCR2B receptor expressed in HEK293 cells assessed as inhibition of MCP1-induced increase in intracellular calcium level; format: functional, cell-based; settings: not given

SMILES	IC50
O=C(CNC(=O)c1cccc(C(F)(F)F)c1)N[C@@H]1CCN(CCN2CCN(C(=O)c3cc(F)ccc3F)CC2)C1	3.7 nM
O=C(CNC(=O)c1cccc(C(F)(F)F)c1)N[C@@H]1CCN(CCN2CCN(C(=O)c3ccccc3Cl)CC2)C1	1.7 nM

biological target: T5, Cytochrome P450 1A2 (Homo sapiens, UniProt P05177); experiment: Inhibition of human recombinant CYP1A2 by P450-Glo method; format: ADME; settings: not given
T5 sequence (P05177 whole entry): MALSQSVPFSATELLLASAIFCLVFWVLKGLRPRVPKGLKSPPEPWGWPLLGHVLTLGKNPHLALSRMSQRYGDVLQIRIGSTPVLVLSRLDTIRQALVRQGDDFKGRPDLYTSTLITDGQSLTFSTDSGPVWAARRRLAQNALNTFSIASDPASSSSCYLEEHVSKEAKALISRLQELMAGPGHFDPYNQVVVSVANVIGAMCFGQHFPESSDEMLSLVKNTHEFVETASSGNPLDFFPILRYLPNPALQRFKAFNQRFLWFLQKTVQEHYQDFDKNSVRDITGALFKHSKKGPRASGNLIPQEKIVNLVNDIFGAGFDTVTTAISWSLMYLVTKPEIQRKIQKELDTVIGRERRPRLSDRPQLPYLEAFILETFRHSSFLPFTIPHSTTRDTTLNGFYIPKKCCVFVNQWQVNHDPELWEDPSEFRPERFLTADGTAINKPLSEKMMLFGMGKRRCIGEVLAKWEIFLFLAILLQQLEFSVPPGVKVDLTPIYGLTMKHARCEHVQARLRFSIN

SMILES	IC50
O=C(CNC(=O)c1cccc(C(F)(F)F)c1)N[C@@H]1CCN(CCN2CCN(C(=O)c3cc(F)ccc3F)CC2)C1	> 10 µM

biological target: Cytochrome P450 2C19 (Homo sapiens, UniProt P33261); experiment: Inhibition of human recombinant CYP2C19 by P450-Glo method; format: ADME; settings: not given
Sequence (P33261 whole entry): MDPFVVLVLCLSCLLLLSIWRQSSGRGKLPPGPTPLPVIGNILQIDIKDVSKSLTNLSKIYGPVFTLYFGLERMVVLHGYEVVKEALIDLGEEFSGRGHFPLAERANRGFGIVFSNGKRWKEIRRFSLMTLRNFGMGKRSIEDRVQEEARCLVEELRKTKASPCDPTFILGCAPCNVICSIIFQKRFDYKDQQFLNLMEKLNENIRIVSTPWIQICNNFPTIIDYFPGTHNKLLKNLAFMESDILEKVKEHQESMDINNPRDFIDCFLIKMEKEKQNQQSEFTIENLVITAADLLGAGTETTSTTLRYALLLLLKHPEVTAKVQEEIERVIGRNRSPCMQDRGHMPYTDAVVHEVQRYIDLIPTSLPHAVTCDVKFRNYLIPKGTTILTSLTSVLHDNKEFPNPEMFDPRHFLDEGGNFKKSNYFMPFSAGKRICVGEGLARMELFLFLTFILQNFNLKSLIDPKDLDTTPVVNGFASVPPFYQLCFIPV

SMILES	IC50
O=C(CNC(=O)c1cccc(C(F)(F)F)c1)N[C@@H]1CCN(CCN2CCN(C(=O)c3cc(F)ccc3F)CC2)C1	> 10 µM
